In ChEMBL document CHEMBL1145616, “Pyridyl-phenyl ether monoamine reuptake inhibitors: Impact of lipophilicity on dual SNRI pharmacology and off-target promiscuity” (Bioorg Med Chem Lett, 2008) one finds IC50, microsomal CLint and hepatocyte CLint data, which are given here for 21 compounds.

Data set [1] concerns the target Sodium-dependent serotonin transporter (Homo sapiens, UniProt P31645). The experiment in a line: Inhibition of [3H]5-HT uptake at human recombinant 5HT transporter expressed in HEK293 cells. It counts as cell-based.
Data set [2] deals with Sodium-dependent noradrenaline transporter (Homo sapiens, UniProt P23975). The experiment in a line: Inhibition of [3H]NA uptake at human recombinant NA transporter expressed in HEK293 cells. It counts as cell-based.
Data set [3] has as its target Sodium-dependent dopamine transporter (Homo sapiens, UniProt Q01959). As to the kind of experiment: Inhibition of [3H]DA uptake at human recombinant DAT expressed in HEK293 cells. It counts as cell-based.
Data set [4] in a line: Intrinsic clearance in human liver microsomes. It counts as ADME, Microsome.
Data set [5] is described as follows: Intrinsic clearance per 10^6 cells in human hepatocytes. It counts as ADME, cell-based, Liver, Hepatocyte.
Data set [6] has as its target Cytochrome P450 2D6 (Homo sapiens, UniProt P10635). The experiment in a line: Inhibition of CYP2D6. It counts as ADME.
Data set [7] has as its target Cytochrome P450 3A4 (Homo sapiens, UniProt P08684). As to the kind of experiment: Inhibition of CYP3A4. It counts as ADME.

Sodium-dependent noradrenaline transporter, sequence (P23975 whole entry): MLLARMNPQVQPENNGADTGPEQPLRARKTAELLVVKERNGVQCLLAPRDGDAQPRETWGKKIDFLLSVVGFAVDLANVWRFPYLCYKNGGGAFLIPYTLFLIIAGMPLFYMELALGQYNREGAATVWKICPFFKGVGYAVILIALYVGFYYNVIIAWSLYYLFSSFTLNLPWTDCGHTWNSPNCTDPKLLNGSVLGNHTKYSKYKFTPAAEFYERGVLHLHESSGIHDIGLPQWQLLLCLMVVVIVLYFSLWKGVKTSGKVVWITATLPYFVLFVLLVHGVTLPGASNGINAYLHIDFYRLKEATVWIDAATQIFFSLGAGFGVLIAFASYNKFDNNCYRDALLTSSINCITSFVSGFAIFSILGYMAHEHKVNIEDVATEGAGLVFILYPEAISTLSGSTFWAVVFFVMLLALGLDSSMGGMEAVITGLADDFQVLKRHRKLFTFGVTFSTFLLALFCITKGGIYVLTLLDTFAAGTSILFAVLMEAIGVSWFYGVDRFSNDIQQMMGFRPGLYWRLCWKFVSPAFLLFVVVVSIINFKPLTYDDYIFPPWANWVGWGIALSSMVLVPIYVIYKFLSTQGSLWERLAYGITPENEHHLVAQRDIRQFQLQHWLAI
Sodium-dependent serotonin transporter, sequence (P31645 whole entry): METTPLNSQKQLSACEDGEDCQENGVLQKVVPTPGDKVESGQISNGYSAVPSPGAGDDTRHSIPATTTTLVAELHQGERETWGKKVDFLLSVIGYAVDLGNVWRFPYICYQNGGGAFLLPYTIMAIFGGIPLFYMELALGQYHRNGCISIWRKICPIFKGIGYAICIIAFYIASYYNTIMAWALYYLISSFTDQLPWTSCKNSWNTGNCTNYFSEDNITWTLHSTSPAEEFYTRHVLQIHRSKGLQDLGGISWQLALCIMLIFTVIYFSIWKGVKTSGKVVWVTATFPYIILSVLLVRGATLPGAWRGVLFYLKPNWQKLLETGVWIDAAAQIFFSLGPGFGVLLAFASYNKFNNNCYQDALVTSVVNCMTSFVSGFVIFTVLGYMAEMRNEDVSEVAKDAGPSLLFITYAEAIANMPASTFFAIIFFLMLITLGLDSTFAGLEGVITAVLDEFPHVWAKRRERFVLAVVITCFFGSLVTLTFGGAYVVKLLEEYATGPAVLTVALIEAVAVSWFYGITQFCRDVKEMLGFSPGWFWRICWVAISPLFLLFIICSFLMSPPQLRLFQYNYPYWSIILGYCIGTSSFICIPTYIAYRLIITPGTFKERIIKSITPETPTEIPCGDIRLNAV
Sodium-dependent dopamine transporter, sequence (Q01959 whole entry): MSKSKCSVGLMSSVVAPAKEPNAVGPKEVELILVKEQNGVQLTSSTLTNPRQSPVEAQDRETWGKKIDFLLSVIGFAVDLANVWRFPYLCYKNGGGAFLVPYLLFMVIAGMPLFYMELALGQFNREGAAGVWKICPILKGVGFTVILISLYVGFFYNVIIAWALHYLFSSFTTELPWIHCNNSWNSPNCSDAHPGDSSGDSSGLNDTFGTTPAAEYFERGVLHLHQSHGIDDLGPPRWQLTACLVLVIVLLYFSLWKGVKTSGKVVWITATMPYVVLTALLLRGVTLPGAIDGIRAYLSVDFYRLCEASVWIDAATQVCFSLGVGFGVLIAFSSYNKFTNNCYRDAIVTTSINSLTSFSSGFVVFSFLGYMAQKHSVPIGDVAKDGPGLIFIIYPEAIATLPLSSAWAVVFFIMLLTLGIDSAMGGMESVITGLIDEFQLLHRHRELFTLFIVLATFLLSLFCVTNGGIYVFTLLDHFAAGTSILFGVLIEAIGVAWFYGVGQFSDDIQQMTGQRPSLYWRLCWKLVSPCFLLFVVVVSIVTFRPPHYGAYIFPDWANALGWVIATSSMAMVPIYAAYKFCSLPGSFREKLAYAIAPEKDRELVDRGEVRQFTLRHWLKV
Cytochrome P450 3A4, sequence (P08684 whole entry): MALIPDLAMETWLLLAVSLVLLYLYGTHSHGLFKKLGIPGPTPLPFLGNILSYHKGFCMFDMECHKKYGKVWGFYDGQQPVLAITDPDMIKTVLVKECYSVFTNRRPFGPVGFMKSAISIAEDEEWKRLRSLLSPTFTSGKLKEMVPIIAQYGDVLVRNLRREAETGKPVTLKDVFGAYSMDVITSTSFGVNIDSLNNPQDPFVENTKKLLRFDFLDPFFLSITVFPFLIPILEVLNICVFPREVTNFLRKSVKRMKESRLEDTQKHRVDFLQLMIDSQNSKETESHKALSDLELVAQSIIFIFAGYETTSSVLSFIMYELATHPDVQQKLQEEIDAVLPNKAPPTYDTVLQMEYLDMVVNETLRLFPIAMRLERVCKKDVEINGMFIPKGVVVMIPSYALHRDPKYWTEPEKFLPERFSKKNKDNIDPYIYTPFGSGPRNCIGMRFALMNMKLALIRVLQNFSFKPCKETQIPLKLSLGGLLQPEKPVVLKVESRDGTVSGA
Cytochrome P450 2D6, sequence (P10635 whole entry): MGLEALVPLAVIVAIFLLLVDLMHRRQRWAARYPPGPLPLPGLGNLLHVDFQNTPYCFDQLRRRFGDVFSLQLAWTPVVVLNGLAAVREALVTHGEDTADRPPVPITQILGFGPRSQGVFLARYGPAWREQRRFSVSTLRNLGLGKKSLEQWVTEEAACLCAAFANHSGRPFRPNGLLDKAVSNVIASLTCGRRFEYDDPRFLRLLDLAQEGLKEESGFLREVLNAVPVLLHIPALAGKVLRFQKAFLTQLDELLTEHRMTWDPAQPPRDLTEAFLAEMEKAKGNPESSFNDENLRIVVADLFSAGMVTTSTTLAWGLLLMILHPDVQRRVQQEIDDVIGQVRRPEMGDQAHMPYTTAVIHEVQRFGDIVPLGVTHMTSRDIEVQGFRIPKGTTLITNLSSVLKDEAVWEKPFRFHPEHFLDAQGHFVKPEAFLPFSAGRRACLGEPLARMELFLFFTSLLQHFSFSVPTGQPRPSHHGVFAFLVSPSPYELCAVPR

As usually defined, the IC50 is the concentration that gives 50% inhibition. `CNCc1cnccc1Oc1ccc(Cl)cc1Br`: the values for the half-inhibitory concentration (IC50) in data set [1] and in data set [2] were 23 nM and 85 nM, respectively.

Turning to `CN(C)Cc1cnccc1Oc1ccc(Cl)cc1Br`, the values for the IC50 in data set [1], in data set [2] and in data set [3] were 4 nM, 26 nM and 1970 nM, respectively.

With `CNCc1cnc(C)cc1Oc1ccc(Cl)cc1C`, the IC50 in data set [1] came to 6 nM; in data set [2], 51 nM.

As for `CCc1cc(Cl)ccc1Oc1cc(C)ncc1CN(C)C`, the figures for the 50% inhibitory concentration (IC50) in data set [1], in data set [2] and in data set [3] were 19 nM, 30 nM and more than 34000 nM, respectively.

Take `CNCc1cnccc1Oc1ccc(Cl)cc1C`: the half-inhibitory concentration (IC50) in data set [1] amounted to 14 nM; in data set [2], 246 nM.

Usually microsomal CLint stands for the capacity of the preparation to metabolise the compound, expressed as a volume cleared per time. Read a high microsomal CLint as rapid turnover. Usually hepatocyte CLint stands for the capacity of the preparation to metabolise the compound, expressed as a volume cleared per time. Higher therefore signals rapid turnover. In the case of `Cc1cc(Oc2ccc(Cl)cc2C)c(CN(C)C)cn1`, the IC50 in data set [1] is 6 nM; in data set [2] it was 26 nM; in data set [3] it was 1680 nM; in data set [6] it was more than 10000 nM; in data set [7], more than 10000 nM. Also, the microsomal CLint in data set [4] is less than 7 µL/min/mg. Further, the hepatocyte CLint in data set [5] was less than 5 µL/min/1e6 cells.

For `CCc1cc(Cl)ccc1Oc1ccncc1CNC`, the IC50 in data set [1] was 46 nM; in data set [2], 86 nM.

As to `COc1cc(Cl)ccc1Oc1ccncc1CN(C)C`, the results for the half-inhibitory concentration (IC50) in data set [1], in data set [2] and in data set [3] were 6 nM, 47 nM and 10200 nM, respectively.

Turning to `CNCc1cnccc1Oc1ccc(Cl)cc1OC`, the IC50 in data set [1] worked out at 14 nM; in data set [2] it was 282 nM.

With `CNCc1cnccc1Oc1ccc(Cl)cc1Cl`, the results for the IC50 in data set [1] and in data set [2] were 39 nM and 159 nM, respectively.

As to `CN(C)Cc1cnccc1Oc1ccc(Cl)cc1Cl`, the figures for the IC50 in data set [1], in data set [2] and in data set [3] were 8 nM, 25 nM and 2430 nM, respectively.

For the compound `CCOc1cc(Cl)ccc1Oc1ccncc1CNC`, the IC50 stood at 24 nM in data set [1] and 394 nM in data set [2].

Turning to `CNCc1cnc(C)cc1Oc1ccc(C)cc1OC`, the IC50 is 18 nM in data set [1] and 257 nM in data set [2].

As to `CNCc1cnc(C)cc1Oc1ccc(F)cc1C`, the figures for the 50% inhibitory concentration (IC50) in data set [1] and in data set [2] were 231 nM and more than 400 nM, respectively.

For the compound `Cc1cc(Cl)ccc1Oc1ccncc1CN(C)C`, the IC50 in data set [1] is 3 nM; in data set [2] it was 36 nM; in data set [3] it was 3230 nM.

Turning to `CCc1cc(Cl)ccc1Oc1ccncc1CN(C)C`, the half-inhibitory concentration (IC50) is 11 nM in data set [1], 18 nM in data set [2] and more than 38000 nM in data set [3].

`CNCc1cc(C(=O)N(C)C)ccc1Oc1ccc(Cl)cc1OC`: the figures for the IC50 in data set [1] and in data set [3] were 7 nM and more than 4000 nM, respectively. Moreover, in data set [5], the intrinsic metabolic clearance (hepatocyte CLint) is 21 µL/min/1e6 cells.

For `CNCc1cnc(C)cc1Oc1ccc(Cl)cc1Br`, the half-inhibitory concentration (IC50) in data set [1] was 10 nM; in data set [2] it was 38 nM.

Turning to `CNCc1cnc(C)cc1Oc1ccc(Cl)cc1OC`, the IC50 in data set [1] came out at 4 nM; in data set [2], 83 nM.

On to `COc1cc(Cl)ccc1Oc1cc(C)ncc1CN(C)C`, for which the IC50 in data set [1] was 13 nM; in data set [2] it was 26 nM; in data set [3], 5040 nM; in data set [6], more than 10000 nM; in data set [7], more than 10000 nM. The microsomal CLint in data set [4] is less than 7 µL/min/mg. Moreover, the hepatocyte CLint in data set [5] is less than 5 µL/min/1e6 cells.

In the case of `CCc1cc(Cl)ccc1Oc1cc(C)ncc1CNC`, the results for the IC50 in data set [1], in data set [2] and in data set [3] were 20 nM, 22 nM and 34100 nM, respectively.
